Patent publication US20020026053A1, “Novel 3-(substituted) -2- indolinones compounds and use thereof as inhibitors of protein kinase activity” (priority 1997, published 2002)

Assays:
PDGF-R = PDGF-R Assay (cellular ELISA, U1242 cells); assay type: cell-based; parameters: concentration or dose not given beside the values; settings: protocol P.119
In short: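 Cellular ELISA for receptor autophosphorylation: after 2 hr test-compound treatment of serum-free U1242 cells at 37°C, ligand is added for 5–10 min, cells are lysed (HNTG) and receptor captured by specific antibody. Anti-phosphotyrosine plus secondary antibody with ABTS colour read at 410/630 nm, compared with compound-free control cells.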

EGFR = target: T1, EGFR (Homo sapiens, UniProt P00533); assay: Biochemical EGFR Assay; parameters: concentration or dose not given beside the values; settings: protocol P.167
T1 construct: endogenous in cells; host or cells: A431 cells (lysate, captured with SUMO1 anti-EGFR antibody)
T1 sequence (P00533 25-1210): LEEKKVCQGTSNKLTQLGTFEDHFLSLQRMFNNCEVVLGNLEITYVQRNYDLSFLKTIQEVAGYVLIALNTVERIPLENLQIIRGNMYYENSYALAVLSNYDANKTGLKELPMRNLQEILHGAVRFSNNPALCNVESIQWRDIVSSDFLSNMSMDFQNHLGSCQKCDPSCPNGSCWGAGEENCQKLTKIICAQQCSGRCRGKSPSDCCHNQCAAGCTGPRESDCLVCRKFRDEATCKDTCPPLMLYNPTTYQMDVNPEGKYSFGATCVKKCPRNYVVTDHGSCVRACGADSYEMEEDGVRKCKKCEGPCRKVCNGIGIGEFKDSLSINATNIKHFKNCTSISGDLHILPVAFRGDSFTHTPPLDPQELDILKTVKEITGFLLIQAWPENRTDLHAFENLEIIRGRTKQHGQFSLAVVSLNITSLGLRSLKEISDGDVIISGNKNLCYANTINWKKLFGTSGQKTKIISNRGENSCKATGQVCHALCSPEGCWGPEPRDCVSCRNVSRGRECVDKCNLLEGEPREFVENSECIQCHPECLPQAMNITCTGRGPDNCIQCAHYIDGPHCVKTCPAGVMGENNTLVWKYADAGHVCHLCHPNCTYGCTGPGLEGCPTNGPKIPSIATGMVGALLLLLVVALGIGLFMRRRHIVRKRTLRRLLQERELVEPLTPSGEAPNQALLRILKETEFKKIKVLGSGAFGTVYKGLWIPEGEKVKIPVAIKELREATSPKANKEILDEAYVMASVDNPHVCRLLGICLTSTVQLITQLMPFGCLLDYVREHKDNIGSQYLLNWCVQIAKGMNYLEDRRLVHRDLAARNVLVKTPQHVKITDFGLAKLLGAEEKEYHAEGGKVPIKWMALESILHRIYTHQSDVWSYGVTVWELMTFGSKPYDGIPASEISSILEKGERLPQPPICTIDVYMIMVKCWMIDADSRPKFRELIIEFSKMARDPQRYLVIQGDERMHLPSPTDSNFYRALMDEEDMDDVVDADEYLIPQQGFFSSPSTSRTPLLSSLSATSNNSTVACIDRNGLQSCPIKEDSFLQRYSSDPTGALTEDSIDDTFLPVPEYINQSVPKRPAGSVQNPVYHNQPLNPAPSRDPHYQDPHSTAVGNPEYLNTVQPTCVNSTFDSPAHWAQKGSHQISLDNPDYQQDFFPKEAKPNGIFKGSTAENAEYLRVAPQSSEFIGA
In short: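 Readout is ABTS absorbance at 410 nm after anti-phosphotyrosine and HRP-antibody detection of EGFR autophosphorylation. The kinase was immunocaptured from A431 lysate, exposed 30 min to test compound diluted 1:10 in TBS, then phosphorylated for 5 min with ATP/MnCl2 before an EDTA stop.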

SMILES	PDGF Kinase % Inhibition (P.119) (PDGF-R) [%]	Biochem EGFR % Inhibition (P.167) (EGFR) [%]
O=C1Nc2ccc(CCCl)cc2C1=Cc1ccc(CO)o1 [10739/G11]	7.6	−23.2
COc1ccc(Oc2cccc(C=C3C(=O)Nc4ccc(S(=O)(=O)Nc5ccc(C(F)(F)F)cc5)cc43)c2)cc1 [10739/E08]	21.7	−17.4
COc1ccc(C=C2C(=O)Nc3ccc(S(=O)(=O)N4CCOCC4)cc32)cc1C [10739/F02]	6.2	−3.6
COc1ccc(Oc2cccc(C=C3C(=O)Nc4ccc(S(=O)(=O)N5CCOCC5)cc43)c2)cc1 [10739/F08]	9.1	−19.1
O=C1Nc2ccc(CCCl)cc2C1=CC1COc2ccccc2O1 (stereo not drawn) [10739/G05]	−5.9	−23.0
O=C1Nc2ccc(CCCl)cc2C1=Cc1ccc(OCc2ccccc2)cc1 [10739/G04]	−3.5	−12.3
COc1ccc(C=C2C(=O)Nc3c(Br)cc(Br)c(C)c32)cc1C [10739/H02]	−18.6	−12.3
COc1ccc(Oc2cccc(C=C3C(=O)Nc4c(Br)cc(Br)c(C)c43)c2)cc1 [10739/H08]	−3.5	−28.5
Cc1c(Br)ccc2c1C(=Cc1cc(O)c(O)c(O)c1)C(=O)N2 [10739/C07]	44.5	34.7
Cc1c(Br)ccc2c1C(=Cc1ccc(OCc3ccccc3)cc1)C(=O)N2 [10739/C04]	19.3	1.5
O=C1Nc2ccc(S(=O)(=O)N3CCOCC3)cc2C1=Cc1ccc(CO)o1 [10739/F11]	0.8	−38.5
Cc1c(Br)ccc2c1C(=CC1COc3ccccc3O1)C(=O)N2 (stereo not drawn) [10739/C05]	31.4	−1.7
Cc1c(Br)ccc2c1C(=Cc1ccoc1)C(=O)N2 [10739/C10]	−18.6	−7.0
O=C1Nc2c(Br)cc(Br)cc2C1=Cc1ccoc1 [10739/A10]	−1.1	20.7
CNS(=O)(=O)c1ccc2c(c1)C(=Cc1ccc(OCc3ccccc3)cc1)C(=O)N2 [10739/D04]	7.2	−6.4
CNS(=O)(=O)c1ccc2c(c1)C(=Cc1cccc(Oc3ccc(OC)cc3)c1)C(=O)N2 [10739/D08]	5.7	−16.8
O=C1Nc2ccc(I)cc2C1=Cc1cc(O)c(O)c(O)c1 [10739/B07]	19.8	59.4
CNS(=O)(=O)c1ccc2c(c1)C(=Cc1ccc(OCCCN(C)C)cc1)C(=O)N2 [10739/D09]	4.7	−15.1
Cc1c(Br)cc(Br)c2c1C(=Cc1ccc(Cl)c(Cl)c1)C(=O)N2 [10738/H08]		−12.1
Cc1c(Br)cc(Br)c2c1C(=Cc1cc(O)c(O)c(O)c1)C(=O)N2 [10739/H07]	14.9	10.9

SMILES	PDGF Kinase % Inhibition (P.119) (PDGF-R) [%]	Biochem EGFR % Inhibition (P.167) (EGFR) [%]
Cc1c(Br)cc(Br)c2c1C(=Cc1ccc(OCc3ccccc3)cc1)C(=O)N2 [10739/H04]	−14.2	−21.9
O=C1Nc2ccc(I)cc2C1=Cc1cccc(OCc2ccccc2)c1 [10739/B03]	1.8	9.6
O=C1Nc2ccc(CCCl)cc2C1=Cc1cccc(OCc2ccccc2)c1 [10739/G03]	−6.9	2.4
Cc1c(Br)ccc2c1C(=Cc1ccc(OCCCN(C)C)cc1)C(=O)N2 [10739/C09]	105.6	−2.7
O=C1Nc2c(Br)cc(Br)cc2C1=CC1COc2ccccc2O1 (stereo not drawn) [10739/A05]	15.9	10.7
O=C1Nc2ccc(I)cc2C1=Cc1ccc(OCc2ccccc2)cc1 [10739/B04]	19.8	17.5
O=C1Nc2ccc(CCCl)cc2C1=Cc1ccc(O)cc1Cl [10739/G06]	−6.4	−31.2
O=C1Nc2ccc(I)cc2C1=CC1COc2ccccc2O1 (stereo not drawn) [10739/B05]	4.7	32.0
O=C1Nc2c(Br)cc(Br)cc2C1=Cc1cc(O)c(O)c(O)c1 [10739/A07]	34.8	65.6
O=C1Nc2ccc(CCCl)cc2C1=Cc1ccoc1 [10739/G10]	−0.6	−38.1
COc1ccc(C=C2C(=O)Nc3ccc(Br)c(C)c32)cc1C [10739/C02]	10.6	−1.7
Cc1c(Br)cc(Br)c2c1C(=Cc1cccc(OCc3ccccc3)c1)C(=O)N2 [10739/H03]	−19.5	10.0
CNS(=O)(=O)c1ccc2c(c1)C(=Cc1ccc(O)cc1Cl)C(=O)N2 [10739/D06]	−43.8	−19.8
O=C1Nc2ccc(S(=O)(=O)N3CCOCC3)cc2C1=Cc1ccc(OCc2ccccc2)cc1 [10739/F04]	−4.0	−7.0
COc1ccc(C=C2C(=O)Nc3ccc(I)cc32)cc1C [10739/B02]	5.2	18.1
O=C1Nc2ccc(S(=O)(=O)N3CCOCC3)cc2C1=CC1COc2ccccc2O1 (stereo not drawn) [10739/F05]	−4.5	−16.4
O=C1Nc2c(Br)cc(Br)cc2C1=Cc1cccc(OCc2ccccc2)c1 [10739/A03]	15.4	5.1
O=C1Nc2c(Br)cc(Br)cc2C1=Cc1ccc(CO)o1 [10739/A11]	1.8	−8.7
O=C1Nc2ccc(S(=O)(=O)Nc3ccc(C(F)(F)F)cc3)cc2C1=Cc1cccc(OCc2ccccc2)c1 [10739/E03]	2.8	4.9
COc1ccc(C=C2C(=O)Nc3ccc(CCCl)cc32)cc1C [10739/G02]	−12.2	−5.1

SMILES	PDGF Kinase % Inhibition (P.119) (PDGF-R) [%]	Biochem EGFR % Inhibition (P.167) (EGFR) [%]
O=C1Nc2ccc(S(=O)(=O)Nc3ccc(C(F)(F)F)cc3)cc2C1=CC1COc2ccccc2O1 (stereo not drawn) [10739/E05]	10.6	−11.3
O=C1Nc2ccc(S(=O)(=O)Nc3ccc(C(F)(F)F)cc3)cc2C1=Cc1ccoc1 [10739/E10]	25.6	17.5
Cc1c(Br)cc(Br)c2c1C(=Cc1ccc(O)cc1Cl)C(=O)N2 [10739/H06]	−17.1	−22.1
COc1ccc(Oc2cccc(C=C3C(=O)Nc4ccc(CCCl)cc43)c2)cc1 [10739/G08]	1.3	−18.5
O=C1Nc2ccc(S(=O)(=O)Nc3ccc(C(F)(F)F)cc3)cc2C1=Cc1ccc(OCc2ccccc2)cc1 [10739/E04]	5.2	−35.5
O=C1Nc2ccc(I)cc2C1=Cc1ccoc1 [10739/B10]	−16.1	−2.1
CN(C)CCCOc1ccc(C=C2C(=O)Nc3ccc(I)cc32)cc1 [10739/B09]	74.1	11.9
CN(C)CCCOc1ccc(C=C2C(=O)Nc3c(Br)cc(Br)cc32)cc1 [10739/A09]	−0.6	26.9
O=C1Nc2ccc(S(=O)(=O)N3CCOCC3)cc2C1=Cc1ccoc1 [10739/F10]	4.2	−16.8
COc1ccccc1C=C1C(=O)Nc2c(Br)cc(Br)c(C)c21 [10738/H09]		1.6
O=C1Nc2ccc(S(=O)(=O)Nc3ccc(C(F)(F)F)cc3)cc2C1=Cc1ccc(CO)o1 [10739/E11]	15.9	−23.4
O=C1Nc2c(Br)cc(Br)cc2C1=Cc1ccc(OCc2ccccc2)cc1 [10739/A04]	23.2	−6.3
Cc1c(Br)ccc2c1C(=Cc1cccc(OCc3ccccc3)c1)C(=O)N2 [10739/C03]	10.1	18.3
COc1ccc(C=C2C(=O)Nc3c(Br)cc(Br)cc32)cc1C [10739/A02]	21.7	0.0
O=C1Nc2ccc(S(=O)(=O)N3CCOCC3)cc2C1=Cc1cccc(OCc2ccccc2)c1 [10739/F03]	−7.4	−10.8
CCCOc1ccc(C=C2C(=O)Nc3c(Br)cc(Br)c(C)c32)cc1 [10738/H11]		−13.4
Cc1c(Br)cc(Br)c2c1C(=Cc1cc(O)cc(O)c1)C(=O)N2 [10738/H07]		−13.4
Cc1c(Br)cc(Br)c2c1C(=Cc1ccc(C(C)C)cc1)C(=O)N2 [10738/H10]		11.4
